Results reported in patent publication US8604065B2, “Pyridyl cyanoguanidine derivatives” (priority 2010, dated 2013).

How the values were obtained:
Type in all cases: cell-based
[1] = test system: human B lymphoma BA127; assay: growth inhibition on BA127 in vitro (MTT); settings: BA127 cells, 72 h
Description: (§1) Human pancreatic cancer AsPC-1; human acute lymphocytic leukemia taxol-resistant cell strain CCRF-CEM/T; human adenocarcinoma of lung NCI-H1975; human pharyngeal squamous cell carcinoma Fadu; human B lymphoma BA25; human B lymphoma BA91; human B lymphoma BA127; human stomach cancer NCI-N87; human non-small cell lung cancer A549; human liver cancer SK-Hep-1; human lung cancer NCI-H460; human prostate cancer PC-3.
(§2) The cells were cultured under the following conditions:
(§3) complete medium: 90% RPMI1640, 10% FBS; 37° C., 5% CO2, saturated humidity.
(§4) After cultured to the end of the logarithmic growth phase, the cells were diluted with the complete medium to the required concentration.
(§5) The cells were seeded in a 96-well microplate at a suitable concentration (CCRF-CEM/T: 20000 cells/well; BA25: 20000 cells/well; BA91: 60000 cells/well; BA127: 60000 cells/well).
(§6) A 2 mM stock solution was prepared by dissolving test compounds in DMSO, diluted with a base medium (without serum) to form a 20 μM or 2 μM 10× working solution which was diluted using a gradient of 1/3. During dilution, the concentration of DMSO was kept consistent. There were 8 dose groups in total. 12 μl of 10× compound working solution was added to the experimental well until the final volume of each well was 120 μl and the concentration of DMSO was 1‰. Meanwhile, a solvent control group without compounds (PC) and a solvent control group without cells and compounds (NC) were prepared. The cells were further cultured for 72 h.
(§7) Subsequently, the activity of cells was measured with a microculture tetrozolium (MTT method). Specifically, 30 μl/well of PBS containing 2.5 mg/ml MTT was added, and then the cells were cultured for another 3 h. 100 μl/well of triple lysis buffer (10% SDS, 5% isobutanol, 0.012 M HCl) was added, and the mixture was kept at room temperature to dissolve MTT crystal. OD value at 570 nm was measured with an ELISA analyzer.
(§8) Inhibition rate of a compound was calculated as follows:
(§9) Inhibition rate=[1−(OD value of administration group−OD value of NC)/(OD value of PC−OD value of NC)]×100%
(§10) Inhibition rates were then plotted versus the logarithm of compound concentrations, and fitted with Logistic 4 parameter equation. The compound concentration corresponding to 50% inhibition rate in the curve was IC50 value.

[2] = test system: human B lymphoma BA91; assay: growth inhibition on BA91 in vitro (MTT); settings: BA91 cells, 72 h
Description: as §1, §2, §3, §4, §5, §6, §7, §8, §9, §10

[3] = test system: human B lymphoma BA25; assay: growth inhibition on BA25 in vitro (MTT); settings: BA25 cells, 72 h
Description: as §1, §2, §3, §4, §5, §6, §7, §8, §9, §10

[4] = test system: human acute lymphocytic leukemia taxol-resistant cell strain CCRF-CEM/T; assay: growth inhibition on CCRF-CEM/T in vitro (MTT); settings: CCRF-CEM-T cells, 72 h
Description: as §1, §2, §3, §4, §5, §6, §7, §8, §9, §10

[5] = test system: Human pancreatic cancer AsPC-1; assay: growth inhibition on AsPC-1 in vitro (MTT); settings: ASPC1, Aspc-1 cells, 72 h
Description: as §1
(§11) The following cells were cultured under the following conditions, respectively:
(§12) 37° C., 5% CO2, saturated humidity.
(§13) The cells were cultured until confluence, digested with a pancreatic enzyme, and prepared into a single cell suspension in a complete medium.
(§14) The cells were seeded in a 96-well microplate at a suitable concentration (AsPC-1: 8000 cells/well; NCI-H1975: 5000 cells/well; Fadu: 6000 cells/well; NCI-N87: 15000 cells/well), cultured overnight to render them adherent to the bottom.
as §6, with “in total. 20 μl of” for “in total. 12 μl of”, “well was 200 μl and” for “well was 120 μl and”, “control group (PC) without compounds” for “control group without compounds”
(§15) Subsequently, the activity of cells was measured with a microculture tetrozolium (MTT method). Specifically, the medium in well was sucked out, a base medium containing 0.5 mg/ml MTT was added in an amount of 100 μl/well, and then the cell was further cultured for 3 h. The medium containing MTT was once again sucked out, 100 μl/well of DMSO was added to dissolve MTT crystal, and OD value at 490 nm was measured with an ELISA analyzer.
(§16) Inhibition rate of a compound was calculated as follows: Inhibition rate=[1−(OD value of administration group−OD value of NC)/(OD value of PC−OD value of NC)]×100%
as §10

[6] = test system: human prostate cancer PC-3; assay: growth inhibition on PC-3 in vitro; settings: PC-3 cells, read-out: growth inhibition effects IC50 (nM) PC-3
Source text: as §1

[7] = test system: human adenocarcinoma of lung NCI-H1975; assay: growth inhibition on NCI-H1975 in vitro (MTT); settings: NCI-H1975 cells, 72 h, read-out: growth inhibition effects IC50 (nM) NCI-H1975
Description: as §1, §11, §12, §13, §14
as §6, with “in total. 20 μl of” for “in total. 12 μl of”, “well was 200 μl and” for “well was 120 μl and”, “control group (PC) without compounds” for “control group without compounds”
(§17) Subsequently, the activity of cells was measured with a microculture tetrozolium (MTT method). […] The medium containing MTT was once again sucked out, 100 μl/well of DMSO was added to dissolve MTT crystal, and OD value at 490 nm was measured with an ELISA analyzer.
(§18) Inhibition rate of a compound was calculated as follows: Inhibition rate=[1−(OD value of administration group−OD value of NC)/(OD value of PC−OD value of NC)]×100% […]

[8] = test system: human non-small cell lung cancer A549; assay: growth inhibition on A549 in vitro; settings: A549 cells, read-out: growth inhibition effects IC50 (nM) A549
Source text: as §1

[9] = test system: human lung cancer NCI-H460; assay: growth inhibition on NCI-H460 in vitro; settings: NCI-H460 cells, read-out: growth inhibition effects IC50 (nM) NCI-H460
Source text: as §1

[10] = test system: human stomach cancer NCI-N87; assay: growth inhibition on NCI-N87 in vitro (MTT); settings: NCI-N87 cells, 72 h, read-out: growth inhibition effects IC50 (nM) NCI-N87
Description: as §1, §11, §12, §13, §14
as §6, with “in total. 20 μl of” for “in total. 12 μl of”, “well was 200 μl and” for “well was 120 μl and”, “control group (PC) without compounds” for “control group without compounds”
as §17, §18

[11] = test system: human pharyngeal squamous cell carcinoma Fadu; assay: growth inhibition on FaDu in vitro (MTT); settings: FaDu cells, 72 h
Description: as §1, §11, §12, §13, §14
as §6, with “in total. 20 μl of” for “in total. 12 μl of”, “well was 200 μl and” for “well was 120 μl and”, “control group (PC) without compounds” for “control group without compounds”
as §15, §16, §10

[12] = test system: human liver cancer SK-Hep-1; assay: growth inhibition on SK-Hep-1 in vitro; settings: SK-HEP1, SK-Hep-1 cells, read-out: growth inhibition effects IC50 (nM) SK-Hep-1
Source text: as §1

| SMILES | IC50 [1] [nM] | IC50 [2] [nM] | IC50 [3] [nM] | IC50 [4] [nM] | IC50 [5] [nM] | IC50 [6] [nM] | IC50 [7] [nM] | IC50 [8] [nM] | IC50 [9] [nM] | IC50 [10] [nM] | IC50 [11] [nM] | IC50 [12] [nM] |
| --- | --- | --- | --- | --- | --- | --- | --- | --- | --- | --- | --- | --- |
| N#C/N=C(\NCCCCCCCCOc1ccccc1OC(F)(F)F)Nc1ccncc1 [Example 6, N-cyano-N′-(8-(o-trifluoromethoxyphenoxy)octyl)-N″-(4-pyridyl) guanidine] | 9.3 | 9.6 | 5.6 |  |  |  |  |  |  |  |  |  |
| N#C/N=C(\NCCCCCCOc1ccccc1Cl)Nc1ccncc1 [Control 3, N-cyano-N′-(6-(2-chlorophenoxy)hexyl)-N″-(4-pyridyl) guanidine, reference compound] |  |  |  | 6.3 | 7.2 |  |  |  |  |  |  |  |
| COc1ccccc1OCCCCCCN/C(=N\C#N)Nc1ccncc1 [Control 4, N-cyano-N′-(6-(2-methoxyphenoxy)hexyl)-N″-(4-pyridyl) guanidine] |  |  |  | 6.9 | 7.3 | 2.4 | 15.5 | 9.9 | 38 | 6.6 |  |  |
| N#C/N=C(\NCCCCCCOc1ccc(Cl)cc1OC(F)F)Nc1ccncc1 [Example 12, N-cyano-N′-(6-(2-difluoromethoxy-4-chlorophenoxy)hexyl)-N″-(4-pyridyl)guanidine] | 3.2 | < 1 |  | 2.3 | 2.3 |  |  |  |  |  | 2.8 |  |
| CC(C)(C)c1ccc(OC(F)F)c(OCCCCCCN/C(=N\C#N)Nc2ccncc2)c1 [Example 10, N-cyano-N′-(6-(2-difluoromethoxy-5-tert-butylphenoxy)hexyl)-N″-(4-pyridyl)guanidine] | 13 | 3.5 |  |  |  |  |  |  |  |  | 2.4 |  |
| COc1ccccc1OCCCCCN/C(=N\C#N)Nc1ccncc1 [Control 1, N-cyano-N′-(5-(o-methoxyphenoxy)pentyl)-N″-(4-pyridyl) guanidine, reference compound] |  |  |  | 113 | 135 |  |  |  |  |  |  |  |
| N#C/N=C(\NCCCCCCOc1ccccc1OC(F)(F)F)Nc1cccnc1 [Example 2, N-cyano-N′-(6-(o-trifluoromethoxyphenoxy)hexyl)-N″-(3-pyridyl) guanidine] | 4.3 | 2.7 | 4.4 |  |  |  |  |  |  |  |  |  |
| Cc1ccc(OC(F)F)c(OCCCCCCN/C(=N\C#N)Nc2ccncc2)c1 [Example 16, N-cyano-N′-(6-(5-methyl-2-difluoromethoxyphenoxy)hexyl)-N″-(4-pyridyl)guanidine] | 1.3 | < 1 |  | 2.2 | 0.9 |  |  |  |  |  | 1.3 |  |
| N#C/N=C(\NCCCCCOc1ccccc1OC(F)(F)F)Nc1ccncc1 [Example 5, N-cyano-N′-(5-(o-trifluoromethoxyphenoxy)pentyl)-N″-(4-pyridyl) guanidine] | 6.1 | 6.9 | 7.3 |  |  |  |  |  |  |  |  |  |
| N#C/N=C(\NCCCCCCOc1ccc(OC(F)(F)F)cc1)Nc1ccncc1 [Example 4, N-cyano-N′-(6-(p-trifluoromethoxyphenoxy)hexyl)-N″-(4-pyridyl) guanidine] |  |  | 12 |  |  |  |  |  |  |  |  |  |
| N#C/N=C(\NCCCCCCOc1ccccc1OC(F)(F)F)Nc1ccncc1 [Example 11, N-cyano-N′-(6-(o-trifluoromethoxyphenoxy)hexyl)-N″-(4-pyridyl) guanidine] | 1.5 | 1.5 | 1 | 1.6 | 2.1 | 0.2 | 5.3 | 3 | 8 | 1.5 | 1.5 | 2.3 |
| N#C/N=C(\NCCCCCCOc1ccc(Cl)cc1)Nc1ccncc1 [Control 2, N-cyano-N′-(6-(4-chlorophenoxy)hexyl)-N″-(4-pyridyl) guanidine] |  |  |  | 22 | 19 | 2.5 | 54 | 22 | 83 | 14 | 11.7 | 16 |
| N#C/N=C(\NCCCCCCOc1cc(Cl)ccc1OC(F)F)Nc1ccncc1 [Example 1, N-cyano-N′-(6-(2-difluoromethoxy-5-chlorophenoxy)hexyl)-N″-(4-pyridyl) guanidine] | 1.4 | 2 |  | 2.2 |  |  |  |  |  |  | 1.2 |  |
| N#C/N=C(\NCCCCCCOc1ccc(Br)cc1OC(F)(F)F)Nc1ccncc1 [Example 7, N-cyano-N′-(6-(2-trifluoromethoxy-4-bromophenoxy)hexyl)-N″-(4-pyridyl)guanidine] | 6.9 | 5.8 | 6.3 | 5.1 |  |  |  |  |  |  | 4.7 |  |
